Source: BindingDB's records for doi:10.1021/jm050224y (Philipps-Universitat Marburg, 2005)

Target: T1, Dimer of Gag-Pol polyprotein [489-587] (Human immunodeficiency virus 1, UniProt P12497)
T1 construct: 489-587
Experiment: Protease Inhibition Assay
Settings: pH 5.5; 25 °C
Experimental: The inhibition assays were performed by mixing enzyme and fluorogenic substrate in the presence of inhibitor compounds. The hydrolysis of the substrate was recorded as an increase of the fluorescence intensity. Ki values were calculated from the IC50 values taken from a dose-response curve with the fluorescent assay using the equation Ki = (IC50 - [E]/2)/ (1 +[S]/Km), where [E] and [S] are the protease and substrate concentrations, Km is the Michaelis-Menten constant.

SMILES: O=C(N[C@@H](Cc1cccc(Br)c1)[C@H](O)C[C@H](CCc1ccc(Cl)cc1Cl)S(=O)(=O)c1ccc(F)cc1)[C@H]1CCCO1 [(2R)-N-{(1S,2R,4S)-1-(3-bromobenzyl)-6-(2,4-dichlorophenyl)-4-[(4-fluorophenyl)sulfonyl]-2-hydroxyhexyl}tetrahydrofuran-2-carboxamide]
- IC50: 4.2 µM

SMILES: CC(C)CCS(=O)(=O)[C@@H](C)C[C@@H](O)[C@H](Cc1cccc(Br)c1)NC(=O)CCS(C)(=O)=O [N-{(1S,2R,4S)-1-(3-bromobenzyl)-2-hydroxy-4-[(3-methylbutyl)sulfonyl]pentyl}-3-(methylsulfonyl)propanamide]
- IC50: > 40 µM
- Ki: > 40 µM

SMILES: O=C(N[C@H](Cc1cccc(Br)c1)[C@@H](O)C[C@@H](CCc1ccc(Cl)cc1Cl)S(=O)(=O)c1ccc(F)cc1)[C@H]1CCCO1 [(2R)-N-{(1R,2S,4R)-1-(3-bromobenzyl)-6-(2,4-dichlorophenyl)-4-[(4-fluorophenyl)sulfonyl]-2-hydroxyhexyl}tetrahydrofuran-2-carboxamide]
- IC50: > 40 µM
- Ki: > 40 µM
